Measured values as given in ChEMBL document CHEMBL5352386 (Eur J Med Chem, 2022).

How the values were obtained:
L02 = assay: Cytotoxicity against human L02 cells assessed as survival rate at 100 uM measured after 24 hrs by MTT assay relative to control; type: functional; conditions: read-out: Survival
Cholinesterase [1] = target: Cholinesterase (Equus caballus, UniProt P81908); assay: Inhibition of equine serum BuChE using butyrylthiocholine iodide as substrate incubated for 10 mins followed by substrate addition by DTNB-reagent based Ellman's colorimetric assay
Chain of Cholinesterase (Equus caballus, UniProt P81908) (P81908 whole entry): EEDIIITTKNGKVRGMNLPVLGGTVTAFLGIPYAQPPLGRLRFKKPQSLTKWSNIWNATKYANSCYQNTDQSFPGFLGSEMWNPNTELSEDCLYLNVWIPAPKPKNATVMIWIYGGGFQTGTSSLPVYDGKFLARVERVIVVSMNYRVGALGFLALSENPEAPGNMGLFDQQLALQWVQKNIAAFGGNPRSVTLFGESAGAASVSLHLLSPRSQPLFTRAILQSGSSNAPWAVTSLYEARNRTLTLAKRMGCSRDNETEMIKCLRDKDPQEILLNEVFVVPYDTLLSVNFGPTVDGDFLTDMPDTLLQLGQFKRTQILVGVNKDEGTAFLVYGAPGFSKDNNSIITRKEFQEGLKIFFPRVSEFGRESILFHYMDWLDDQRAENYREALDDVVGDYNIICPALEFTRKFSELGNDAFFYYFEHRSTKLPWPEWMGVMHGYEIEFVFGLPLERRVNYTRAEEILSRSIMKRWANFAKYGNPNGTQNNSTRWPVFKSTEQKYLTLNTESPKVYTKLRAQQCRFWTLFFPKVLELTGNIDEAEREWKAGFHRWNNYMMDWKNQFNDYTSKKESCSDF

[2] = Cytotoxicity against mouse BV-2 cells assessed as survival rate at 100 uM measured after 24 hrs by MTT assay relative to control; type: toxicity, cell-based; conditions: read-out: Survival
SH-SY5Y [3] = assay: Cytotoxicity against human SH-SY5Y cells assessed as inhibition of cell growth measured after 24 hrs by MTT assay; type: functional, cell-based
PC-12 [4] = assay: Cytotoxicity against rat PC12 cells assessed as inhibition of cell growth measured after 24 hrs by MTT assay; type: functional, cell-based; conditions: PC-12, 24 h
Cholinesterase [5] = target: Cholinesterase (Homo sapiens, UniProt P06276); assay: Inhibition of human BuChE using butyrylthiocholine iodide as substrate incubated for 10 mins followed by substrate addition by DTNB-reagent based Ellman's colorimetric assay
Chain of Cholinesterase (Homo sapiens, UniProt P06276) (P06276 whole entry): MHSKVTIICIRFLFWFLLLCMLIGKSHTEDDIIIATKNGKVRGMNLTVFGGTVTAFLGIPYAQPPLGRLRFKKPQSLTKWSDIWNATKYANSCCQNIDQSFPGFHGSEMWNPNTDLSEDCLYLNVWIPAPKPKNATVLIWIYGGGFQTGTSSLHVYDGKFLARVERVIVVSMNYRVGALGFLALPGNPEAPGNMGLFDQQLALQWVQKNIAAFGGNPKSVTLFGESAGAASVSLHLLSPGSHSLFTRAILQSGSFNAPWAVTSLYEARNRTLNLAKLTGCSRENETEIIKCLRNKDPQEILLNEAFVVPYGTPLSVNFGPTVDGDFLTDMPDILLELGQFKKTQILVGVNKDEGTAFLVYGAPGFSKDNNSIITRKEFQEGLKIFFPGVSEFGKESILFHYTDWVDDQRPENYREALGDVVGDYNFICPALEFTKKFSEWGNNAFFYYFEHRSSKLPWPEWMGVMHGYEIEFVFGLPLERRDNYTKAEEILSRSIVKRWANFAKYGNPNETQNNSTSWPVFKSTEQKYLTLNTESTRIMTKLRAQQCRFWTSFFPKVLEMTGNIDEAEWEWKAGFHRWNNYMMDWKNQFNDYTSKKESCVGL

PC-12 [6] = assay: Cytotoxicity against rat PC12 cells assessed as survival rate at 100 uM measured after 24 hrs by MTT assay relative to control; conditions: PC-12, 24 h, read-out: Survival
SH-SY5Y [7] = assay: Cytotoxicity against human SH-SY5Y cells assessed as survival rate at 2.5 uM measured after 24 hrs by MTT assay relative to control; type: functional; conditions: read-out: Survival
[8] = Cytotoxicity against mouse BV-2 cells assessed as inhibition of cell growth measured after 24 hrs by MTT assay; type: toxicity, cell-based

SMILES | viability at 100 µM (L02) [%] | IC50 (Cholinesterase [1]) [nM] | viability at 24 h, 100 µM [2] [%] | IC50 (SH-SY5Y [3]) [nM] | IC50 (PC-12 [4]) [nM] | IC50 (Cholinesterase [5]) [nM] | viability at 100 µM (PC-12 [6]) [%] | viability at 2.5 µM (SH-SY5Y [7]) [%] | IC50 at 24 h [8] [nM]
Cc1cc(NC(=O)Cn2c(-c3nonc3N)nc3ccccc32)cc([N+](=O)[O-])c1 | 79.1 | 47.6 | 79.8 | 58900 | 28800 | 278 |  |  | 
Cc1cc(C)cc(NC(=O)Cn2c(-c3nonc3N)nc3ccccc32)c1 | 85.9 | 13 | 85.9 | 7500 |  | 885 | 69.7 |  | 
Cc1cc(Cl)cc(NC(=O)Cn2c(-c3nonc3N)nc3ccccc32)c1 | 65.9 | 9.16 | 56.3 |  |  | 101 | 54.3 | 32.1 | 
Nc1nonc1-c1nc2ccccc2n1CC(=O)Nc1cc(Cl)cc(Cl)c1 | 94.2 | 4.27 | 52.1 |  | 13600 | 30.4 |  | 45.8 | 
Cc1cc(F)cc(NC(=O)Cn2c(-c3nonc3N)nc3ccccc32)c1 | 80 | 57.8 | 97.5 |  |  | 453 | 75.8 | 26.3 | 
Nc1nonc1-c1nc2ccccc2n1CC(=O)Nc1cc(F)cc(Cl)c1 | 91.7 | 5.32 | 111 |  |  | 155 | 58 | 28.1 | 
Nc1nonc1-c1nc2ccccc2n1CC(=O)Nc1cc([N+](=O)[O-])cc(C(F)(F)F)c1 | 57.5 | 0.35 | 57.5 | 15400 | 18000 | 71.6 |  |  | 
Nc1nonc1-c1nc2ccccc2n1CC(=O)Nc1ccc([N+](=O)[O-])c(Cl)c1 | 52.6 | 11 | 52.6 | 24900 | 27800 | 749 |  |  | 
Nc1nonc1-c1nc2ccccc2n1CC(=O)Nc1cc(Br)cc(C(F)(F)F)c1 | 75.8 | 4.21 | 56.3 |  | 11400 | 12.4 |  | 44.7 | 
COc1cc(NC(=O)Cn2c(-c3nonc3N)nc3ccccc32)cc(OC)c1 | 72.8 | 107 |  |  |  | 309 | 88.8 | 24.6 | 6300
Nc1nonc1-c1nc2ccccc2n1CC(=O)Nc1ccc(F)cc1Br | 89 | 119 |  |  |  | 35.7 | 86.6 | 22.4 | 730
Nc1nonc1-c1nc2ccccc2n1CC(=O)Nc1cc(F)cc(Br)c1 | 88.4 | 14.3 | 88.4 |  |  | 62.2 | 88.3 | 44.2 | 
Cc1cc(Br)cc(NC(=O)Cn2c(-c3nonc3N)nc3ccccc32)c1 | 71.4 | 6.38 | 92.6 |  |  | 218 | 58.9 | 31 | 
Cc1ccc2cc(NC(=O)Cn3c(-c4nonc4N)nc4ccccc43)ccc2n1 | 61.5 |  |  |  |  |  |  |  | 
Nc1nonc1-c1nc2ccccc2n1CC(=O)Nc1cc(C(F)(F)F)cc(C(F)(F)F)c1 | 74.2 | 7.72 | 100 |  |  | 935 | 50.2 | 46.1 | 
Nc1nonc1-c1nc2ccccc2n1CC(=O)Nc1cc(Br)cc(Br)c1 | 85.3 | 3.84 | 52 |  | 6560 | 27.9 |  | 27.3 | 
Nc1nonc1-c1nc2ccccc2n1CC(=O)Nc1cc(Cl)cc(Br)c1 | 80.3 | 1.61 | 59.9 |  | 37800 | 75.7 |  | 43.6 | 
